Assay results: patent US8410078B2, “Composition and methods to treat cardiac diseases” (University of Connecticut, priority 2006, dated 2013)

Experiments:
CSQ mice = test: Chronic mini-pump administration in CSQ mice: lifespan and cardiac hypertrophy; type: in vivo, mouse
Excerpt: Mice displaying the CSQ model of severe cardiomyopathy and heart failure were bred and maintained by methods known in the art. The CSQ transgenic (TG) mice were originally provided by Dr. Larry Jones (Krannert Institute of Cardiology, Indiana University School of Medicine, Indiana), and developed hypertrophy followed by a lethal heart failure phenotype with death near the age of 3 months. Ventricular myocytes were obtained from 3-month old wild type (WT) and CSQ mice of either sex (26 WT, 47 TG) by an enzymatic dissociation procedure. Briefly, the hearts were rapidly excised from mice that had been anesthetized with pentobarbital and treated with 1000 Units of heparin. The aorta was cannulated and the heart perfused in a Langendorff apparatus with oxygenated (95% O2/5% CO2) Ca^2+-free solution (37° C.) for 5 minutes at a rate of 2.5 ml/min. The solution composition was: 126 mM NaCl, 4.4 mM KCl, 1.0 mM MgCl2, 18 mM NaHCO3, 11 mM Glucose, 4 mM HEPES, and 3 mM BDM (2,3-butanedione monoxime), (pH 7.3 adjusted with NaOH). Thereafter, the perfusing solution was changed to that containing 25 μM CaCl2 and liberase (70 μg/ml, Roche Molecular Biochemicals, Inc.) for 8-10 minutes. Cells were sedimented by gravity for 10-15 minutes and the pellet was resuspended in 200 μM Ca^2+-containing Tyrode's solution (containing 3 mM BDM), allowed to settle for 30 minutes at room temperature, and suspended with Tyrode's solution containing: 135 mM NaCl, 5.4 mM KCl, 1.0 mM CaCl2, 1.0 mM MgCl2, 10 mM HEPES and 10 mM dextrose (pH 7.4 adjusted with NaOH). The experiments were carried out at room temperature (22-23° C.) and were completed within 4-6 hours after myocyte isolation.
Cardiac myocyte cross-section area was quantified by methods known in the art. […] The images of cross-sectioned cells showing consistently round shapes were captured with Macrofire® PictureFrame (Optronics, Goleta, Calif.) and cross-section area measured with ImageProPlus® (MediaCybernetics, Silver Spring, Md.). Typically, 50 to 100 cross-sectional areas were determined and averaged per heart. […]

[1] = tested on: mouse thoracic aorta ring; test: Vascular reactivity of phenylephrine-preconstricted thoracic aorta rings; settings: pre-constricted with phenylephrine, 10^−9 to 10^−5 M
Method: Thoracic aortas were quickly removed from 8 to 10-week wild type (C57 BL6) mice, cut into 3 mm rings. After pre-constriction with phenylephrine (1 μM), increasing concentrations of acetylcholine or MRS2339 were added in a cumulative fashion to achieve a concentration-response curve. The % relaxation was determined as % decrease in ring tension (gram) compared to the tension before the addition of acetylcholine or MRS2339. Data were shown as mean±SEM.

Nc1nc(Cl)nc2c1ncn2C1[C@H]2C[C@@]2(COP(=O)(O)O)[C@@H](O)[C@H]1O (stereo partly drawn) [MRS2339, (1′S,2′R,3′S,4′R,5′S)-4-(6-amino-2-chloro-9H-purin-9-yl)-1-[phosphoryloxymethyl]bicyclo[3.1.0]hexane-2,3-diol]
Median lifespan (CSQ mice; 3 μM solution, about 6 μl per day for 28 days via mini-pump): 115 days | Cardiac myocyte cross-section area (CSQ mice; chronic mini-pump treatment): 281±15 μm^2 | Heart weight/body weight ratio (CSQ mice; chronic mini-pump treatment): 10.5±1.38 | Relaxation of aorta ring segments [1]: did not induce relaxation
